{"source": "patent US20220024882A1", "about": "“NOVEL TUMOR ANTIGEN BINDING AGENTS AND USES THEREOF” (ITM Isotopen Technologien München AG, priority 2018, published 2022)", "key": {"[1]": {"system": "PC-3 PIP/flu tumor-bearing mice", "experiment": "Biodistribution study in PC-3 PIP/flu tumor-bearing mice", "format": "in vivo, athymic nude Balb/c mice", "conditions": "for PC-3 flu Tumor: PSMA-negative tumor xenograft; for PC-3 flu Tumor / PC-3 PIP Tumor: mice; for PC-3 PIP Tumor: PSMA-positive tumor xenograft", "procedure": "(§1) In vivo experiments were approved by the local veterinarian department and conducted in accordance with the Swiss law of animal protection. Mice were obtained from Charles River Laboratories, Sulzfeld, Germany, at the age of 5-6 weeks. Female, athymic nude Balb/c mice were subcutaneously inoculated with PSMA-positive PC-3 PIP cells (6×10^6 cells in 100 μL Hank's balanced salt solution (HBSS) with Ca^2+/Mg^2+) on the right shoulder and with PSMA-negative PC-3 flu cells (5×10^6 cells in 100 μL HBSS Ca^2+/Mg^2+) on the left shoulder. Two weeks later, the tumors reached a size of about 80-300 mm^3 suitable for the performance of the biodistribution studies.\nBiodistribution studies were performed 12-15 days after PC-3 PIP/flu tumor cell inoculation. […] The radioligands were injected in a lateral tail vein in a volume of 100-200 μL. Mice were euthanized at different time points after injection (p.i.) of the radioligands. Selected tissues and organs were collected, weighed and measured using a γ-counter. The results were decay-corrected and listed as a percentage of the injected activity per gram of tissue mass (% IA/g) (Table 3 and 4).\nMice were obtained from Charles River Laboratories, Sulzfeld, Germany, at the age of 5-6 weeks. Female, athymic nude BALB/c mice were subcutaneously inoculated with PSMA-positive PC-3 PIP cells (6×10^6 cells in 100 μL Hank's balanced salt solution (HBSS)) on the right shoulder and with PSMA-negative PC-3 flu cells (5×10^6 cells in 100 μL HBSS) on the left shoulder. Two weeks later, the tumors reached a size of about 80-300 mm^3 suitable for the performance of the biodistribution and imaging studies.\nBiodistribution studies were performed 12-15 days after PC-3 PIP/flu tumor cell inoculation. ^177Lu-Ibu-sPSMA was diluted in 0.9% NaCl containing 0.05% bovine serum albumin (BSA) to prevent adhesion to the vial and syringe material. The radioligand was injected in a lateral tail vein in a volume of 100 μL. Mice were euthanized at different time points after injection (p.i.) of the radioligand. Selected tissues and organs were collected, weighed and measured using a γ-counter. The results were decay-corrected and listed as a percentage of the injected activity per gram of tissue mass (% IA/g) (Table 6, FIG. 18)."}, "[2]": {"experiment": "Whole-body activity measurements, non-tumor bearing mice", "format": "in vivo", "conditions": "4 h after injection, 25 MBq, 1 nmol i.v.", "procedure": "All albumin-binding radioligands (molar activity: 25 MBq/nmol) were diluted in 0.9% NaCl containing 0.05% BSA and i.v. injected into non-tumor bearing mice (25 MBq, 1 nmol, 100 μL). The mice were measured in a dose calibrator at various time-points up to 56 h p.i. The radioligands were compared with previously obtained data from ^177Lu-PSMA-617."}, "[3]": {"system": "PSMA-positive PC-3 PIP tumor-bearing mice", "experiment": "In vivo therapy study", "design": "species or system athymic nude BALB/c mice", "conditions": "for first mouse of group euthanized / median survival / TGDI5 (tumor growth delay index, 5-fold increase of tumor size): 1 nmol per mouse; for TGDI5 (tumor growth delay index, 5-fold increase of tumor size): controls = 1.0", "procedure": "Mice were obtained from Charles River Laboratories, Sulzfeld, Germany, at the age of 5-6 weeks. Female, athymic nude BALB/c mice were subcutaneously inoculated with PSMA-positive PC-3 PIP cells (4×10^6 cells in 100 μL Hank's balanced salt solution (HBSS)) on the right shoulder. Six days later, the tumors reached a size of about 30-160 mm^3 suitable for the performance of the in vivo therapy study. Mice were euthanized when a predefined endpoint criterion was reached or when the study was finalized at Day 84. Endpoint criteria were defined as (i) body weight loss of >15%, (ii) a tumor volume of >800 mm^3 (iii) a combination of body weight loss of >10% and a tumor volume of >700 mm^3 or (iv) signs of unease and pain or a combination thereof.\nSix days after subcutaneous inoculation of 4×10^6 PC-3 PIP tumor cells inoculation, three groups with statistically similar body weight and tumor volumes were intravenously injected. One group was injected with only the vehicle (saline containing 0.05% bovine serum albumin (BSA); Group A; n=6), and another two groups with ^177Lu-Ibu-DAB-PSMA (Group B: 2 MBq, 1 nmol (n=6) and Group C: 5 MBq, 1 nmol (n=6)) at Day 0 of the therapy study (Table 7). The monitoring of mice and the assessment of the therapy study was conducted as described by Eiber et al., J. Nucl. Med., 2017, 58 (Suppl. 2) 67S-76S). In short, the mice were monitored by measuring body weight and tumor size every second day over a period of 12 weeks. The relative body weight (RBW) was defined as [BWx/BW0], where BWx is the body weight in grams at a given Day x and BW0 is the body weight in grams at Day 0. The tumor dimensions were determined by measuring the longest tumor axis (L) and its perpendicular axis (W) with a digital caliper. The tumor volume (V) was calculated according to the equation [V=0.5×(LW^2)]. The relative tumor volume (RTV) was defined as [TVx/TV0], where TVx is the tumor volume in mm^3 at a given day x, and TV0 is the tumor volume in mm^3 at Day 0.\nThe efficacy of the radionuclide therapy was expressed as the tumor growth delay (TGDx), which was calculated as the time required for the tumor volume to increase x-fold over the initial volume at Day 0. The tumor growth delay index [TGDIx=TGDx(T)/TGDx(C)] was calculated as the TGDx ratio of treated mice (T) over the TGDx average of control mice (C) for a 5-fold (x=5, TGD5) increase of the initial tumor volume. The median survival was calculated using GraphPad Prism software (version 7). Survival of mice was assessed using Kaplan-Meier curves to determine median survival of mice of each group using Graph Pad Prism software (version 7)."}, "[4]": {"experiment": "Whole-body activity measurements, tumor-bearing mice", "format": "in vivo, athymic nude Balb/c mice", "conditions": "4 h p.i., 30 MBq, 1 nmol i.v., activity right after injection = 100%", "procedure": "as §1, with “imaging” for “biodistribution”\nThe single radioligands (specific activity: 30 MBq/nmol) were diluted in 0.9% NaCl containing 0.05% bovine serum albumin (BSA) and i.v. injected into PC-3 PIP/flu tumor bearing mice (30 MBq, 1 nmol, 100 μL) for SPECT/CT imaging purposes. The mice were measured in a dose calibrator at 4 h, 24 h, 48 h and 72 h p.i., respectively."}, "[5]": {"conditions": "4 h p.i., PC-3 PIP/flu tumor-bearing mice"}, "[6]": {"conditions": "24 h p.i., PC-3 PIP/flu tumor-bearing mice"}}, "note": "Where “and” joins values, the source holds several entries; their conditions need not be identical. Equal entries are not always repeated.", "data": [{"smiles": "CC(C)Cc1ccc(C(C)C(=O)NC(CCN)C(=O)NCCCCC(NC(=O)CN2CCN(CC(=O)O)CCN(CC(=O)O)CCN(CC(=O)O)CC2)C(=O)NCC2CCC(C(=O)NC(Cc3ccc4ccccc4c3)C(=O)NCCCCC(NC(=O)NC(CCC(=O)O)C(=O)O)C(=O)O)CC2)cc1", "note": "(stereo not shown) [^177Lu-Ibu-DAB-PSMA, metal not drawn]", "values": [{"measurement": "Blood", "setting": "[1]; [5]", "result": "3.66 ± 0.45", "unit": "% IA/g"}, {"measurement": "Bone", "setting": "[1]; [5]", "result": "0.62 ± 0.08", "unit": "% IA/g"}, {"measurement": "Heart", "setting": "[1]; [5]", "result": "1.32 ± 0.10", "unit": "% IA/g"}, {"measurement": "Intestines", "setting": "[1]; [5]", "result": "0.71 ± 0.05", "unit": "% IA/g"}, {"measurement": "Kidneys", "setting": "[1]; [5]", "result": "19.4±1.84", "unit": "% IA/g"}, {"measurement": "Liver", "setting": "[1]; [5]", "result": "1.50 ± 0.12", "unit": "% IA/g"}, {"measurement": "Lung", "setting": "[1]; [5]", "result": "2.40 ± 0.31", "unit": "% IA/g"}, {"measurement": "Muscle", "setting": "[1]; [5]", "result": "0.54 ± 0.09", "unit": "% IA/g"}, {"measurement": "Salivary glands", "setting": "[1]; [5]", "result": "0.86 ± 0.38", "unit": "% IA/g"}, {"measurement": "Spleen", "setting": "[1]; [5]", "result": "1.14 ± 0.11", "unit": "% IA/g"}, {"measurement": "Stomach", "setting": "[1]; [5]", "result": "0.62 ± 0.12", "unit": "% IA/g"}, {"measurement": "Tumor-to-blood", "setting": "[1]; [5]", "result": "18.2 ± 2.69"}, {"measurement": "Tumor-to-kidney", "setting": "[1]; [5]", "result": "3.01 ± 0.49"}, {"measurement": "Tumor-to-liver", "setting": "[1]; [5]", "result": "44.6 ± 8.41"}, {"measurement": "PC-3 flu Tumor", "setting": "[1]; 4 h p.i.", "result": "1.19 ± 0.30", "unit": "% IA/g"}, {"measurement": "PC-3 PIP Tumor", "setting": "[1]; 4 h p.i.", "result": "66.2 ± 11.0", "unit": "% IA/g"}, {"measurement": "Bone", "setting": "[1]; [6]", "result": "0.09 ± 0.02", "unit": "% IA/g"}, {"measurement": "Heart", "setting": "[1]; [6]", "result": "0.10 ± 0.01", "unit": "% IA/g"}, {"measurement": "Intestines", "setting": "[1]; [6]", "result": "0.11 ± 0.03", "unit": "% IA/g"}, {"measurement": "Kidneys", "setting": "[1]; [6]", "result": "6.00±0.68", "unit": "% IA/g"}, {"measurement": "Liver", "setting": "[1]; [6]", "result": "0.56 ± 0.10", "unit": "% IA/g"}, {"measurement": "Lung", "setting": "[1]; [6]", "result": "0.21 ± 0.03", "unit": "% IA/g"}, {"measurement": "Muscle", "setting": "[1]; [6]", "result": "0.05 ± 0.01", "unit": "% IA/g"}, {"measurement": "Salivary glands", "setting": "[1]; [6]", "result": "0.56 ± 0.37", "unit": "% IA/g"}, {"measurement": "Spleen", "setting": "[1]; [6]", "result": "0.32 ± 0.03", "unit": "% IA/g"}, {"measurement": "Stomach", "setting": "[1]; [6]", "result": "0.18 ± 0.13", "unit": "% IA/g"}, {"measurement": "Tumor-to-blood", "setting": "[1]; [6]", "result": "337 ± 40.4"}, {"measurement": "Tumor-to-kidney", "setting": "[1]; [6]", "result": "8.88 ± 0.99"}, {"measurement": "Tumor-to-liver", "setting": "[1]; [6]", "result": "98.3 ± 21.1"}, {"measurement": "PC-3 flu Tumor", "setting": "[1]; 24 h p.i.", "result": "0.17 ± 0.01", "unit": "% IA/g"}, {"measurement": "PC-3 PIP Tumor", "setting": "[1]; 24 h p.i.", "result": "52.4 ± 2.35", "unit": "% IA/g"}, {"measurement": "whole-body retained activity", "setting": "[2]", "result": 18, "unit": "%"}, {"measurement": "first mouse of group euthanized", "setting": "[3]; 2 MBq", "result": 26, "unit": "days"}, {"measurement": "median survival", "setting": "[3]; 2 MBq", "result": 34, "unit": "days"}, {"measurement": "TGDI5 (tumor growth delay index, 5-fold increase of tumor size)", "setting": "[3]; 2 MBq", "result": "1.6 and 1.6 ± 0.4"}, {"measurement": "average relative body weight at the time of euthanasia", "setting": "[3]; 5 MBq per mouse", "result": "1.06±0.10"}, {"measurement": "day on which the two mice with tumor regrowth reached the endpoint", "setting": "[3]; 5 MBq per mouse", "result": "70 days and 82 days"}, {"measurement": "mice of the group in which the tumors disappeared entirely", "setting": "[3]; 5 MBq per mouse, n=6", "result": "four"}, {"measurement": "mice still alive at the end of the study at Day 84", "setting": "[3]; 5 MBq per mouse, n=6", "result": "four"}, {"measurement": "first mouse of group euthanized", "setting": "[3]; 5 MBq", "result": 70, "unit": "days"}, {"measurement": "TGDI5 (tumor growth delay index, 5-fold increase of tumor size)", "setting": "[3]; 5 MBq", "result": "not defined"}, {"measurement": "median survival", "setting": "[3]; 5 MBq, study end Day 84", "result": "undefined"}, {"measurement": "whole-body retention of radioactivity", "setting": "[4]", "result": 17, "unit": "%"}]}]}
